Data published in US6899723B2, “Transcutaneous photodynamic treatment of targeted cells” (Light Sciences Corporation, priority 2001, dated 2005).
Several values for one entry are separate records, joined by “and”; a condition that tells them apart may be missing. Equal values may be shown once.

Columns and labels:
normal skin tissue = conditions: systemically administered, clinical use; cited from earlier work
[1] = tested on: colon carcinoma tumor mass; test: Photodynamic therapy of a solid tumor in a patient with implanted LED light source probes; assay type: in vivo, human
Text: A patient in the terminal phase of recurrent malignant colon cancer having undergone chemotherapy and irradiation therapy, presented with a protruding colon carcinoma tumor mass of approximately 500 grams and approximately 13 cm in diameter, which extended through the patient's dermis. Due to the advanced state of the patient's disease and due to the highly vascularized nature of this tumor mass, resection was not feasible. Further, this large tumor mass presented a significant amount of pain and discomfort to the patient, as well as greatly impairing the patient's ability to lie flat.
Six separate light source probes, each including a linear array of LEDs, were surgically implanted in this large human tumor using standard surgical procedures. A single dose of a photosensitizer agent (aminolevulinic acid (ALA) at 60 mg/kg) was provided by oral administration to the patient. Following a period of five hours to permit sufficient clearance of the photosensitizing agent from healthy tissues, light irradiation was administered. An intensity of about 25-30 mW of light from each light source probe (650 nm peak wavelength) was delivered to the tumor for 40 hours. […] The total fluence delivered to the tumor bed during this single extended duration treatment was in excess of 20,000 Joules.
The fluence rate employed in this Example represented about 150-180 mW/cm^2, with a total fluence more than 20,000 Joules.

[2] = tested on: transplanted human tumors; test: Low fluence PDT of established transplanted human tumors in nude mice; assay type: in vivo; conditions: for tumor necrosis: 660 nm light 30 microwatts per cm^2 for 72 hours, after 7 days
Description: (§1) A series of experiments were performed using nude mice growing transplanted human tumors. The mice are injected with various photosensitizers and the tumors illuminated with low fluence of only […] of light over a 72 hour time period. Extended tumor necrosis was observed.
(§2) Another two mice with established tumors were injected with 50-100 micrograms of Pheophorbide A into the lesion and exposed to 660 nm light (30 microwatts per cm^2) for 72 hours.
(§3) Two experimental mice were injected with epithelial cancer cells preincubated with 20 micrograms of Chlorin e6. […] Another two mice were injected with 100-150 micrograms of Chlorin e6 intratumorally and then exposed to 660 nm light (30 microwatts per cm^2) for 72 hours.
Five experimental mice bearing established tumors were injected with 1 mg Hpd intraperitoneally followed by exposure to 630 nm (peak) light ([…]) for 72 hours. […] There was no effect observed on control animals maintained in the absence of light (dark control mice).

epithelial cancer cells = test: Low fluence PDT of nude mice injected with epithelial cancer cells preincubated with photosensitizer; assay type: in vivo; conditions: for tumor growth: 660 nm light about 48 hours, 30 microwatts per cm^2, after 1.5 months
Description: as §1, §2, §3

[3] = cited from earlier work
virus-infected T cells = conditions: Blood Cells 18:129-40 (1992); cited from earlier work

CCOC(=O)C1=Cc2c3nc(cc4nc(cc5[n-]c(cc6[n-]c2c(C)c6CC)c(C)c5CC)C(C)=C4CC)[C@@H](C)[C@]13CC.[Cl-].[Cl-].[Sn] (racemic) [PURLYTIN]
duration of dermal photosensitivity (normal skin tissue): at least several weeks

NCC(=O)CCC(=O)O [ALA, aminolevulinic acid]
reduction of tumor tissue (necrotic tissue debrided) ([1]; over four weeks following PDT): approximately 500 grams | radius of extensive tumor necrosis from each of the light source probes ([1]; patient, ALA 60 mg/kg oral, 650 nm light, after 40 hours of PDT, total fluence > 20,000 Joules): greater than 5 cm | collateral damage to surrounding normal tissue ([1]; patient, ALA 60 mg/kg oral, after 40 hours of PDT): no collateral damage

C=Cc1c(C)c2cc3nc(c(CC(=O)O)c4[nH]c(cc5nc(cc1[nH]2)C(C)=C5CC)c(C)c4C(=O)O)[C@@H](CCC(=O)O)[C@@H]3C [Chlorin e6]
tumor necrosis ([2]; 100-150 micrograms intratumorally): Extensive tumor necrosis | tumor growth (epithelial cancer cells; cells preincubated with 20 micrograms): no tumor growth | tumor growth, dark control (epithelial cancer cells; cells preincubated with 20 micrograms, no light): developed a large tumor

Oc1cccc(-c2c3nc(c(-c4cccc(O)c4)c4ccc([nH]4)c(-c4cccc(O)c4)c4nc(c(-c5cccc(O)c5)c5ccc2[nH]5)CC4)C=C3)c1 [FOSCAN]
duration of dermal photosensitivity (normal skin tissue): at least several weeks

CC(=O)[O-].CC(=O)[O-].CCc1c(CC)c2cc3nc(cnc4cc(OCCOCCOCCOC)c(OCCOCCOCCOC)cc4ncc4nc(cc1[n-]2)C(CCCO)=C4C)C(C)=C3CCCO.O.[Lu+3] [Lutrin, lutetium texaphyrin]
time tumor tissues retain the agent ([3]; from time of administration): 48 to 96 h and 24 to 96 h | time at which a larger proportion clears from normal tissue ([3]; in vivo): about 8 hours | time at which a proportion begins to clear from normal tissue ([3]; in vivo): about 3 hours | time at which an even greater proportion clears from normal tissue ([3]; in vivo): about 16 hours

Pheophorbide A
tumor necrosis ([2]; 50-100 micrograms into the lesion): Extensive tumor necrosis | effect on tumor, dark control animals ([2]; 50-100 micrograms into the lesion, no light): no effect | tumor growth (epithelial cancer cells; cells preincubated with 10 micrograms): no tumor growth | tumor growth, dark controls (epithelial cancer cells; cells preincubated with 10 micrograms, maintained in the absence of light): developed a large tumor

benzoporphyrin derivatives [BPD]
effect on T cell membrane after exposure to light (virus-infected T cells): holes developed in the T cell membrane and increased in size until the membrane completely decomposed

sodium porfimer [PHOTOPHRIN]
duration of dermal photosensitivity (normal skin tissue): up to six weeks
